The target of assay [1] is T1, human M1 (Homo sapiens, UniProt P11229).
T1 construct: expressed in transfected cells; host or cells: CHO cells
T1 sequence (P11229 1-460): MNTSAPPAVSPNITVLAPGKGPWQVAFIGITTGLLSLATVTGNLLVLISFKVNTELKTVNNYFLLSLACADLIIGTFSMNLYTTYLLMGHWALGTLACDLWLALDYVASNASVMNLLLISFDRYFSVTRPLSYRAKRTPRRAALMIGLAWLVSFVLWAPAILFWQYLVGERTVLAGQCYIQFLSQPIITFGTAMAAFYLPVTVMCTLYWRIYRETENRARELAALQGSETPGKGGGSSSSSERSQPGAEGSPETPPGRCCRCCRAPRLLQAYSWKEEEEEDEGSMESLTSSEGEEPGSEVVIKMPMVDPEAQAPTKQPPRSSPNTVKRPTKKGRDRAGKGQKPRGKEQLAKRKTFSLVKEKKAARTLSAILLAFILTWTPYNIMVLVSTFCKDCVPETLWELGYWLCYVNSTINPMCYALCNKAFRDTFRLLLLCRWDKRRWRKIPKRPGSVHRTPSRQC
Description: M1 PAM assay (FLIPR intracellular calcium), human M1. Type of assay: cell-based. Summed up: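 CHO cells expressing M1, Fluo-4AM-loaded, in HEPES/probenecid HBSS pH 7.4, 1% DMSO final. Compounds pre-incubated 2 min for agonist activity versus 30 nM acetylcholine control. For PAM activity, acetylcholine EC20 added after the 2 min pre-incubation, then 2 min more before FLIPR intracellular Ca2+ read.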
Background: Calcium assays in cells follow changes in intracellular calcium, usually with a dye or a luminescent sensor.

In assay [2] the target is T2, ratM1 (Rattus norvegicus, UniProt P08482).
T2 construct: expressed in transfected cells; host or cells: CHO cells (stated generally for the assay, not specifically for rat M1)
T2 sequence (P08482 1-460): T1 sequence (P11229 1-460) with A5V, T254S, P309S, R320K, A337G, I413V
In words: M1 PAM assay (FLIPR intracellular calcium), rat M1. Type of assay: cell-based.

[3] abbreviates: CHO human M1 cells, FLIPR Ca2+, with EC20 of acetylcholine, first value of the cell, read-out: hM1 EC50.
The mark [4] stands for this setting: rat M1, FLIPR Ca2+, second value of the cell, read-out: ratM1 EC50.

Structures are written as SMILES. Positions count from the first letter of the chain named. Where two headings read alike, the source gives them in different places.

What is called EC50 is the concentration at which the effect is half-maximal. With `CNC(=O)c1ccc(Cn2cc(C(=O)N[C@H]3CCCC[C@@H]3O)c3c(F)cccc32)cn1` [Example 87, 4-fluoro-N-((1S,2S)-2-hydroxycyclohexyl)-1-((6-(methylcarbamoyl)pyridin-3-yl)methyl)-1H-indole-3-carboxamide], the EC50 in assay [1] (setting [3]) stood at 0.0734 µM; in assay [2] (setting [4]), 0.12 µM.
With `COc1ccc(F)c2c(C(=O)N[C@H]3CCOC[C@@H]3O)cn(Cc3ccc(-c4cnn(C)c4)cc3)c12` [Example 150, 4-fluoro-N-((3R,4S)-3-hydroxytetrahydro-2H-pyran-4-yl)-7-methoxy-1-(4-(1-methyl-1H-pyrazol-4-yl)benzyl)-1H-indole-3-carboxamide], the EC50 in assay [1] (setting [3]) turned out to be 0.05 µM; in assay [2] (setting [4]), 0.034 µM.
The like results for `Cn1cc(-c2ccc(Cn3cc(C(=O)N[C@H]4CCCC[C@@H]4O)c4c(F)c(F)c(F)c(F)c43)cn2)cn1` [Example 27, 4,5,6,7-tetrafluoro-N-((1S,2S)-2-hydroxycyclohexyl)-1-((6-(1-methyl-1H-pyrazol-4-yl)pyridine-3-yl)methyl)-1H-indole-3-carboxamide] were, in that order, 0.056 µM and 0.0807 µM.
On to `Cn1cc(-c2ccc(Cn3cc(C(=O)N[C@H]4CCOC[C@@H]4O)c4c(F)cccc43)c(F)c2)cn1` (mixture of isomers) [Example 6, 4-fluoro-1-(2-fluoro-4-(1-methyl-1H-pyrazol-4-yl)benzyl)-N-((3R,4RS)-3-hydroxytetrahydro-2H-pyran-4-yl)-1H-indole-3-carboxamide], for which the half-maximal effective concentration (EC50) in assay [1] (setting [3]) came to 0.07 µM; in assay [2] (setting [4]), 0.147 µM.
As to `COc1ccc(Cn2cc(C(=O)N[C@H]3CCCC[C@@H]3O)c3c(F)cccc32)cc1` [Example 31, 4-fluoro-N-((1S,2S)-2-hydroxycyclohexyl)-1-(4-methoxybenzyl)-1H-indole-3-carboxamide], the EC50 in assay [1] is 0.0906 µM; in assay [2], 0.16 µM.
As for `O=C(N[C@H]1CCCC[C@@H]1O)c1cn(Cc2ccc(-c3ccno3)cc2)c2cccc(F)c12` [Example 138, 4-fluoro-N-((1S,2S)-2-hydroxycyclohexyl)-1-(4-(isoxazol-5-yl)benzyl)-1H-indole-3-carboxamide], the EC50 was 0.016 µM in assay [1] (setting [3]) and 0.038 µM in assay [2] (setting [4]).
In the case of `Cn1cc(-c2ccc(Cn3cc(C(=O)N[C@H]4CCCC[C@@H]4O)c4c(F)cccc43)cn2)cn1` [Example 30, 4-fluoro-N-((1S,2S)-2-hydroxycyclohexyl)-1-((6-(1-methyl-1H-pyrazol-4-yl)pyridine-3-yl)methyl)-1H-indole-3-carboxamide], the EC50 in assay [1] (setting [3]) was determined as 0.0132 µM; in assay [2] (setting [4]) it was 0.0141 µM.
Take `CNC(=O)c1ccc(Cn2cc(C(=O)NC3CCCCC3F)c3c(F)cccc32)cc1` (stereo not drawn) [Example 121, 4-fluoro-N-(2-fluorocyclohexyl)-1-[[4-(methylcarbamoyl)phenyl]methyl]indole-3-carboxamide]: the values for the EC50 in assay [1] (setting [3]) and in assay [2] (setting [4]) were 0.006 µM and 0.017 µM, respectively.
With `O=C(N[C@H]1CCCC[C@@H]1O)c1cn(Cc2cc(F)cc(F)c2)c2cccc(F)c12` [Example 43, 1-(3,5-difluorobenzyl)-4-fluoro-N-((1S,2S)-2-hydroxycyclohexyl)-1H-indole-3-carboxamide], the values for the EC50 in assay [1] and in assay [2] were 0.488 µM and 0.632 µM, respectively.
As to `CNC(=O)c1ccc(Cn2cc(C(=O)NC3CCCC(F)(F)C3)c3c(F)cccc32)cc1F` (stereo not drawn) [Example 130, N-(3,3-difluorocyclohexyl)-4-fluoro-1-(3-fluoro-4-(methylcarbamoyl)benzyl)-1H-indole-3-carboxamide], the results for the EC50 in assay [1] (setting [3]) and in assay [2] (setting [4]) were 0.034 µM and 0.058 µM, respectively.
With `CNC(=O)c1ccc(Cn2cc(C(=O)NC3CCCCC3F)c3c(F)cccc32)cc1F` (stereo not drawn) [Example 129, 4-fluoro-1-(3-fluoro-4-(methylcarbamoyl)benzyl)-N-(2-fluorocyclohexyl)-1H-indole-3-carboxamide], the EC50 in assay [1] (setting [3]) amounted to 0.027 µM; in assay [2] (setting [4]), 0.066 µM.
The corresponding values for `CNC(=O)c1ccc(Cn2cc(C(=O)NCC3CC3)c3c(F)cccc32)cc1` [Example 116, N-(cyclopropylmethyl)-4-fluoro-1-[[4-(methylcarbamoyl)phenyl]methyl]indole-3-carboxamide] are 0.074 µM and 0.32 µM.
The like results for `O=C(N[C@H]1CCCC[C@@H]1O)c1cn(Cc2ccc(N3CCCC3)cc2)c2cccc(F)c12` [Example 161, 4-fluoro-N-((1S,2S)-2-hydroxycyclohexyl)-1-(4-(pyrrolidin-1-yl)benzyl)-1H-indole-3-carboxamide] were, in that order, 0.121 µM and 0.307 µM.
As for `O=C(N[C@H]1CCCC[C@@H]1O)c1cn(Cc2ccc(F)cc2)c2cccc(F)c12` [Example 42, 4-fluoro-1-(4-fluorobenzyl)-N-((1S,2S)-2-hydroxycyclohexyl)-1H-indole-3-carboxamide], the EC50 in assay [1] was determined as 0.11 µM; in assay [2] it was 0.2 µM.
As to `CNC(=O)c1ccc(Cn2cc(C(=O)NC3CCOCC3)c3c(F)cccc32)cc1F` [Example 163, 4-Fluoro-1-(3-fluoro-4-(methylcarbamoyl)benzyl)-N-(tetrahydro-2H-pyran-4-yl)-1H-indole-3-carboxamide], the EC50 in assay [1] (setting [3]) was found to be 0.059 µM; in assay [2] (setting [4]), 0.082 µM.
For `Cc1ccc(F)c2c(C(=O)NC3CCOCC3)cn(Cc3ccc4c(cnn4C)c3)c12` [Example 134, 4-fluoro-7-methyl-1-((1-methyl-1H-indazol-5-yl)methyl)-N-(tetrahydro-2H-pyran-4-yl)-1H-indole-3-carboxamide], the EC50 is 0.025 µM in assay [1] and 0.076 µM in assay [2].
`O=C(N[C@H]1CCOC[C@@H]1O)c1cn(CC2CCN(c3ccccn3)CC2)c2cccc(F)c12` [Example 136, 4-fluoro-N-((3R,4S)-3-hydroxytetrahydro-2H-pyran-4-yl)-1-((1-(pyridin-2-yl)piperidin-4-yl)methyl)-1H-indole-3-carboxamide]: the EC50 in assay [1] (setting [3]) was determined as 0.134 µM; in assay [2] (setting [4]) it was 0.428 µM.
For the compound `Cc1ccn(-c2ccc(Cn3cc(C(=O)N[C@H]4CCCC[C@@H]4O)c4c(F)c(F)ccc43)cc2)n1` [Example 61, 4,5-difluoro-N-((1S,2S)-2-hydroxycyclohexyl)-1-(4-(3-methyl-1H-pyrazol-1-yl)benzyl)-1H-indole-3-carboxamide], the EC50 in assay [1] (setting [3]) amounted to 0.343 µM; in assay [2] (setting [4]), 0.515 µM.
The corresponding values for `Cn1cc(-c2ccc(Cn3cc(C(=O)NC4CCCOC4)c4c(F)cccc43)c(F)c2)cn1` (stereo not drawn) [Example 19, 4-fluoro-1-(2-fluoro-4-(1-methyl-1H-pyrazol-4-yl)benzyl)-N-(tetrahydro-2H-pyran-3-yl)-1H-indole-3-carboxamide] are 0.229 µM and 0.579 µM.
Turning to `CNC(=O)c1ccc(Cn2cc(C(=O)NC3CCCOC3)c3c(F)cccc32)cc1` (stereo not drawn) [Example 122, 4-fluoro-1-[[4-(methylcarbamoyl)phenyl]methyl]-N-(oxan-3-yl)indole-3-carboxamide], the EC50 amounted to 0.062 µM in assay [1] (setting [3]) and 0.154 µM in assay [2] (setting [4]).
The corresponding values for `Cn1cc(-c2ccc(Cn3cc(C(=O)N[C@H]4CCCC[C@@]4(C)O)c4c(F)cccc43)c(F)c2)cn1` (racemic) [Example 23, 4-fluoro-1-(2-fluoro-4-(1-methyl-1H-pyrazol-4-yl)benzyl)-N-((1SR,2RS)-2-hydroxy-2-methylcyclohexyl)-1H-indole-3-carboxamide] are 0.0149 µM and 0.0258 µM.
For `CCc1ccc(F)c2c(C(=O)N[C@H]3CCOC[C@@H]3O)cn(Cc3ccc(-c4cnn(C)c4)cc3)c12` [Example 109, 7-ethyl-4-fluoro-N-((3R,4S)-3-hydroxytetrahydro-2H-pyran-4-yl)-1-(4-(1-methyl-1H-pyrazol-4-yl)benzyl)-1H-indole-3-carboxamide], the EC50 is 0.061 µM in assay [1] (setting [3]) and 0.079 µM in assay [2] (setting [4]).
`Cn1cc(-c2ccc(Cn3cc(C(=O)N[C@H]4CCCC[C@@H]4O)c4c(F)cc(F)cc43)c(F)c2)cn1` [Example 5, 4,6-difluoro-1-(2-fluoro-4-(1-methyl-1H-pyrazol-4-yl)benzyl)-N-((1S,2S)-2-hydroxycyclohexyl)-1H-indole-3-carboxamide]: the EC50 in assay [1] (setting [3]) turned out to be 0.0838 µM; in assay [2] (setting [4]), 0.231 µM.
Consider `CNC(=O)c1ccc(Cn2cc(C(=O)NC3CCOCC3C)c3c(F)cccc32)cc1` (stereo not drawn) [Example 126, 4-fluoro-1-[[4-(methylcarbamoyl)phenyl]methyl]-N-(3-methyloxan-4-yl)indole-3-carboxamide], for which the EC50 in assay [1] (setting [3]) is 0.019 µM; in assay [2] (setting [4]), 0.051 µM.

Source of the values: patent publication US9708259B2 (Hoffmann-La Roche Inc., priority 2013, dated 2017).
